This passage reports DC50 and Dmax results from patent US12599672B2, “KRAS proteolysis targeting chimeras” (PAQ Therapeutics Inc., priority 2023, dated 2026).

Common to all, as to type: cell-based
The target in one assay is T1, KRAS (Homo sapiens, UniProt P01116).
T1 construct: endogenous in cells; host or cells: KE39 (KRAS amplified) cells
Put plainly: KRASamp MSD assay. Conditions: KE39 (KRAS amplified) cells, treated with test compounds for 24 hr, MSD readout of KRAS degradation. The method, boiled down:
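KRAS-amplified KE39 cells treated with compound for 24 hr, then lysed in RIPA buffer with protease/phosphatase inhibitors. KRAS protein measured by MSD sandwich immunoassay against a recombinant WT KRAS standard curve; DC50 derived from curve fitting of degradation.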

Another assay concerns the target T2, KRAS G12V (Homo sapiens, UniProt P01116, G12V).
T2 construct: SW620-KRAS (G12V)-HiBit-KI cell (Pharmaron); host or cells: SW620-KRAS (G12V)-HiBit-KI cells (HiBiT knock-in at the endogenous KRAS locus)
Put plainly: KRAS G12V HiBit assay. The following applies: SW620-KRAS (G12V)-HiBit-KI cells, compound treatment for 24 hours, class symbols. In a few lines: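 HiBiT-tagged KRAS G12V cells treated 24 h with compound in a 3-fold, 10-point series (0.3 mM DMSO stock); lytic HiBiT reagent with LgBiT added after 15 min room-temperature equilibration. Degradation calculated against 0.1% DMSO high control.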

A further assay has as its target T3, KRAS G12D (Homo sapiens, UniProt P01116, G12D).
T3 construct: AsPc-1-KRAS (G12D)-HiBit-KI cell (Pharmaron); host or cells: AsPc-1-KRAS (G12D)-HiBit-KI cells (HiBiT knock-in at the endogenous KRAS locus)
Put plainly: KRAS G12D HiBit assay. The following applies: AsPc-1-KRAS (G12D)-HiBit-KI cell, compound treatment for 24 hours; for DC50: absolute DC50. The method, boiled down: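 Cells were treated for 24 h with compounds in a 3-fold, 10-point dilution series from a 0.3 mM DMSO stock, then equilibrated 15 min at room temperature. KRAS G12D HiBiT levels were read by luminescence after lytic Nano-Glo HiBiT reagent with LgBiT; inhibition calculated relative to 0.1% DMSO high control.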

Setting [1] is: numeric bounds given in place of class symbols.

T3 sequence (P01116 1-188 isoform P01116-2 G12D): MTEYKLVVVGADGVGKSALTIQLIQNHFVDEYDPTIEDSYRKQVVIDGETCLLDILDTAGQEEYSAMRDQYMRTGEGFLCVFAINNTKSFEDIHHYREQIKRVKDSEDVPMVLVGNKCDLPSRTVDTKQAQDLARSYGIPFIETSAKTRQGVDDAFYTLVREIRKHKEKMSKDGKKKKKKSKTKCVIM
T2 sequence (P01116 1-188 isoform P01116-2 G12V): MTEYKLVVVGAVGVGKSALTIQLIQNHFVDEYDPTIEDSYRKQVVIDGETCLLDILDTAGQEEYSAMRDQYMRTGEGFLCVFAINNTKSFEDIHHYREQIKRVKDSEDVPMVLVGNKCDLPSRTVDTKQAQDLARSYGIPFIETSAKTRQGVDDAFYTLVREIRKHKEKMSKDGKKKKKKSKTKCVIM
T1 sequence (P01116 1-188 isoform P01116-2): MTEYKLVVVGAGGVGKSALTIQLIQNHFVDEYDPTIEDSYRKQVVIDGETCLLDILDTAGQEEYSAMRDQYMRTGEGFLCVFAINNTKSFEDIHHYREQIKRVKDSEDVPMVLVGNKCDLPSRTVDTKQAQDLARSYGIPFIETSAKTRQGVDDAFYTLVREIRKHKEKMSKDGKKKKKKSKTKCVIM

Regarding `CCc1c(F)ccc2cc(O)cc(-c3ncc4c(N5CCC[C@@](C)(O)C5)nc(OC[C@@]56CCCN5[C@H](COC(=O)N5C7CCC5CC(CN5CCC(c8ccc9c(c8)n(C)c(=O)n9C8CCC(=O)NC8=O)CC5)C7)CC6)nc4c3F)c12` (stereo partly drawn) [Compound 392, ((3S,7aS)-7a-(((7-(8-ethyl-7-fluoro-3-hydroxynaphthalen-1-yl)-8-fluoro-4-((R)-3-hydroxy-3-methylpiperidin-1-yl)pyrido[4,3-d]pyrimidin-2-yl)oxy)methyl)hexahydro-1H-pyrrolizin-3-yl)methyl 3-((4-(1-(2,6-dioxopiperidin-3-yl)-3-methyl-2-oxo-2,3-dihydro-1H-benzo[d]imidazol-5-yl)piperidin-1-yl)methyl)-8-azabicyclo[3.2.1]octane-8-carboxylate], the DC50 was under 1 nM on KRAS, under 10 nM at KRAS G12V and under 100 nM on KRAS G12D (class symbols).

As for `CCc1c(F)ccc2cc(O)cc(-c3ncc4c(N5CCC[C@@](C)(O)C5)nc(OC[C@@]56CCCN5[C@H](COC(=O)N5CC7(CCC(N8CCC(c9ccc%10c(c9)n(C)c(=O)n%10C9CCC(=O)NC9=O)CC8)CC7)C5)CC6)nc4c3F)c12` (stereo partly drawn) [Compound 467, ((3S,7aS)-7a-(((7-(8-ethyl-7-fluoro-3-hydroxynaphthalen-1-yl)-8-fluoro-4-((R)-3-hydroxy-3-methylpiperidin-1-yl)pyrido[4,3-d]pyrimidin-2-yl)oxy)methyl)hexahydro-1H-pyrrolizin-3-yl)methyl 7-(4-(1-(2,6-dioxopiperidin-3-yl)-3-methyl-2-oxo-2,3-dihydro-1H-benzo[d]imidazol-5-yl)piperidin-1-yl)-2-azaspiro[3.5]nonane-2-carboxylate], the figures for the DC50 at KRAS, on KRAS G12V and at KRAS G12D (class symbols) were under 1 nM, under 10 nM and under 100 nM, respectively.

As to `CCc1c(F)ccc2cc(O)cc(-c3ncc4c(N5CCC[C@@](C)(O)C5)nc(OC[C@@]56CCCN5[C@H](COC(=O)N5CCC(CN7CCC(c8ccc9c(c8)n(C)c(=O)n9C8CCC(=O)NC8=O)C7)CC5)CC6)nc4c3F)c12` (stereo partly drawn) [Compound 435, ((3S,7aS)-7a-(((7-(8-ethyl-7-fluoro-3-hydroxynaphthalen-1-yl)-8-fluoro-4-((R)-3-hydroxy-3-methylpiperidin-1-yl)pyrido[4,3-d]pyrimidin-2-yl)oxy)methyl)hexahydro-1H-pyrrolizin-3-yl)methyl 4-((3-(1-(2,6-dioxopiperidin-3-yl)-3-methyl-2-oxo-2,3-dihydro-1H-benzo[d]imidazol-5-yl)pyrrolidin-1-yl)methyl)piperidine-1-carboxylate], the results for the DC50 on KRAS, at KRAS G12V and at KRAS G12D (class symbols) were 1 to 10 nM, 10 to 100 nM and under 100 nM, respectively.

Consider `CCc1c(F)ccc2cc(O)cc(-c3ncc4c(N5CCC[C@@](C)(O)C5)nc(OC[C@@]56CCCN5[C@H](COC(=O)N5CCC(CN7CCC(c8cc9c(cc8F)n(C8CCC(=O)NC8=O)c(=O)n9C)CC7)CC5)CC6)nc4c3F)c12` (stereo partly drawn) [Compound 101, ((35,7aS)-7a-(((7-(8-Ethyl-7-fluoro-3-hydroxynaphthalen-1-yl)-8-fluoro-4-((R)-3-hydroxy-3-methylpiperidin-1-yl)pyrido[4,3-d]pyrimidin-2-yl)oxy)methyl)hexahydro-1H-pyrrolizin-3-yl)methyl 4-((4-(1-(2,6-dioxopiperidin-3-yl)-6-fluoro-3-methyl-2-oxo-2,3-dihydro-1H-benzo[d]imidazol-5-yl)piperidin-1-yl)methyl) piperidine-1-carboxylate], for which the DC50 was under 1 nM on KRAS, under 10 nM on KRAS G12V and under 100 nM on KRAS G12D (class symbols). In addition, the Dmax at KRAS G12D (class symbols) was over 50%.

As for `CCc1c(F)ccc2cc(O)cc(-c3ncc4c(N5CCC[C@@](C)(O)C5)nc(OC[C@@]56CCCN5[C@H](COC(=O)N5CCC(CN7CCC(c8cccc9c8n(C)c(=O)n9C8CCC(=O)NC8=O)CC7)CC5)CC6)nc4c3F)c12` (stereo partly drawn) [Compound 440, ((3S,7aS)-7a-(((7-(8-ethyl-7-fluoro-3-hydroxynaphthalen-1-yl)-8-fluoro-4-((R)-3-hydroxy-3-methylpiperidin-1-yl)pyrido[4,3-d]pyrimidin-2-yl)oxy)methyl)hexahydro-1H-pyrrolizin-3-yl)methyl 4-((4-(1-(2,6-dioxopiperidin-3-yl)-3-methyl-2-oxo-2,3-dihydro-1H-benzo[d]imidazol-4-yl)piperidin-1-yl)methyl)piperidine-1-carboxylate], the DC50 on KRAS was 1 to 10 nM; at KRAS G12V it was under 10 nM; on KRAS G12D (class symbols), under 100 nM.

Turning to `CCc1c(F)ccc2cc(O)cc(-c3ncc4c(N5CCC[C@@](C)(O)C5)nc(OC[C@@]56CCCN5[C@H](CN5CCC7(CC5)CC(N5CCC(c8ccc9c(c8)n(C)c(=O)n9C8CCC(=O)NC8=O)CC5)C7)CC6)nc4c3F)c12` (stereo partly drawn) [Compound 471, 3-(5-(1-(7-(((3S,7aS)-7a-(((7-(8-Ethyl-7-fluoro-3-hydroxynaphthalen-1-yl)-8-fluoro-4-((R)-3-hydroxy-3-methylpiperidin-1-yl)pyrido[4,3-d]pyrimidin-2-yl)oxy)methyl)hexahydro-1H-pyrrolizin-3-yl)methyl)-7-azaspiro[3.5]nonan-2-yl)piperidin-4-yl)-3-methyl-2-oxo-2,3-dihydro-1H-benzo[d]imidazol-1-yl) piperidine-2,6-dione], the DC50 at KRAS is 1 to 10 nM; at KRAS G12V, over 100 nM; on KRAS G12D (class symbols), under 100 nM.

As for `CCc1c(F)ccc2cc(O)cc(-c3ncc4c(N5CCCC(C)(CO)C5)nc(OC[C@@]56CCCN5[C@H](COC(=O)N5CCC(CN7CCC(c8ccc9c(c8)n(C)c(=O)n9C8CCC(=O)NC8=O)CC7)CC5)CC6)nc4c3F)c12` (stereo partly drawn) [Compound 341, ((3S,7aS)-7a-(((7-(8-ethyl-7-fluoro-3-hydroxynaphthalen-1-yl)-8-fluoro-4-(3-(hydroxymethyl)-3-methylpiperidin-1-yl)pyrido[4,3-d]pyrimidin-2-yl)oxy)methyl)hexahydro-1H-pyrrolizin-3-yl)methyl 4-((4-(1-(2,6-dioxopiperidin-3-yl)-3-methyl-2-oxo-2,3-dihydro-1H-benzo[d]imidazol-5-yl)piperidin-1-yl)methyl)piperidine-1-carboxylate], the DC50 was at least 10 nM on KRAS, over 100 nM at KRAS G12V and over 100 nM on KRAS G12D (setting [1]).

On to `C#Cc1c(F)ccc2cc(O)cc(-c3ncc4c(N5CCC[C@@](C)(O)C5)nc(OC[C@@]56CCCN5[C@H](COC(=O)N5CCC7(CC5)CC(CN5CCC(c8ccc9c(c8)n(C)c(=O)n9C8CCC(=O)NC8=O)CC5)C7)CC6)nc4c3F)c12` (stereo partly drawn) [Compound 323, ((3S,7aS)-7a-(((7-(8-ethynyl-7-fluoro-3-hydroxynaphthalen-1-yl)-8-fluoro-4-((R)-3-hydroxy-3-methylpiperidin-1-yl)pyrido[4,3-d]pyrimidin-2-yl)oxy)methyl)hexahydro-1H-pyrrolizin-3-yl)methyl 2-((4-(1-(2,6-dioxopiperidin-3-yl)-3-methyl-2-oxo-2,3-dihydro-1H-benzo[d]imidazol-5-yl)piperidin-1-yl)methyl)-7-azaspiro[3.5]nonane-7-carboxylate], for which the DC50 on KRAS is 1 to 10 nM; at KRAS G12V, under 10 nM; at KRAS G12D (class symbols), under 100 nM.

For `CCc1c(F)ccc2cc(O)cc(-c3ncc4c(N5CCC[C@@](C)(O)C5)nc(OC[C@@]56CCCN5C(CN5CCC(OCCCc7ccc8c(c7)n(C)c(=O)n8C7CCC(=O)NC7=O)CC5)CC6)nc4c3F)c12` (stereo partly drawn) [Compound 384, 3-(5-(3-((1-(((35,7aS)-7a-(((7-(8-Ethyl-7-fluoro-3-hydroxynaphthalen-1-yl)-8-fluoro-4-((R)-3-hydroxy-3-methylpiperidin-1-yl)pyrido[4,3-d]pyrimidin-2-yl)oxy)methyl)hexahydro-1H-pyrrolizin-3-yl)methyl)piperidin-4-yl)oxy)propyl)-3-methyl-2-oxo-2,3-dihydro-1H-benzo[d]imidazol-1-yl) piperidine-2,6-dione], the DC50 is 1 to 10 nM on KRAS, 10 to 100 nM at KRAS G12V and under 100 nM on KRAS G12D (class symbols).

Consider `CCc1c(F)ccc2cc(O)cc(-c3ncc4c(N5CCC[C@@](C)(O)C5)nc(OC[C@]56CCCN5[C@H](COC(=O)N5CCC(CCCOc7ccc8c(c7)n(C)c(=O)n8C7CCC(=O)NC7=O)CC5)CC6)nc4c3F)c12` (stereo partly drawn) [Compound 302, ((3S,7aR)-7a-(((7-(8-ethyl-7-fluoro-3-hydroxynaphthalen-1-yl)-8-fluoro-4-((R)-3-hydroxy-3-methylpiperidin-1-yl)pyrido[4,3-d]pyrimidin-2-yl)oxy)methyl)hexahydro-1H-pyrrolizin-3-yl)methyl 4-(3-((1-(2,6-dioxopiperidin-3-yl)-3-methyl-2-oxo-2,3-dihydro-1H-benzo[d]imidazol-5-yl)oxy)propyl)piperidine-1-carboxylate], for which the DC50 on KRAS is under 1 nM; at KRAS G12V, under 10 nM; at KRAS G12D (setting [1]) it was over 100 nM.
